Source: ChEMBL document CHEMBL1126714, “Structure, DNA minor groove binding, and base pair specificity of alkyl- and aryl-linked bis(amidinobenzimidazoles) and bis(amidinoindoles)” (J Med Chem, 1993)

Experiments:
Assay type in all cases: nucleic-acid assay
[1] = test system: Nucleic Acid; assay: Thermal denaturation in alternating poly(dA-dT)poly(dA-dT) homopolymer (AT)
[2] = test system: Nucleic Acid; assay: Thermal denaturation in sonicated poly(dA)-poly(dT) homopolymer (AT)
[3] = test system: Calf thymus DNA; assay: Thermal denaturation in sonicated calf thymus DNA (CT DNA); conditions: Bos taurus
[4] = test system: Nucleic Acid; assay: Thermal denaturation in alternating poly(dG-dC)-poly(dG-dC) homopolymer (GC)
[5] = test system: Nucleic Acid; assay: Ratio between poly-dAdT and poly-dGdC binding

Row | Compound | Tm [1] [°C] | Tm [2] [°C] | Tm [3] [°C] | Tm [4] [°C] | Ratio [5]
1 | c1ccc2[nH]c(CCc3nc4ccccc4[nH]3)nc2c1 | 0.1 | 2.1 | 4.3 | 1 | –
2 | c1cc2[nH]c(CCc3nc4cc(C5=NCCN5)ccc4[nH]3)nc2cc1C1=NCCN1 | 34.6 | 40 | 18.5 | 3 | –
3 | c1cc2[nH]c(CCCc3nc4cc(C5=NCCN5)ccc4[nH]3)nc2cc1C1=NCCN1 | 20.1 | 24.8 | 9.9 | 3.3 | 6
4 | c1c[nH]c(-c2ccc(-c3cc4ccc(-c5ncc[nH]5)cc4[nH]3)cc2)n1 | 42.7 | 45.3 | 22.4 | 9.4 | 5
5 | Nc1ccc2nc(CCc3nc4ccc(N)cc4[nH]3)[nH]c2c1 | 0.6 | 3 | 1.6 | 2.6 | –
6 | C/C(=C(/C)c1nc2cc(C(=N)N)ccc2[nH]1)c1nc2cc(C(=N)N)ccc2[nH]1 | 15.6 | 17.3 | 14.1 | 4.6 | 3
7 | CC(C)NC(=N)c1ccc2[nH]c(-c3ccc(-c4nc5cc(C(=N)NC(C)C)ccc5[nH]4)cc3)nc2c1 | 45 | 44.3 | 22.3 | 5.6 | 8
8 | c1cc2[nH]c(CCc3nc4cc(N5CCOCC5)ccc4[nH]3)nc2cc1N1CCOCC1 | 0.8 | 0.9 | 0.6 | -0.3 | –
9 | N=C(N)c1ccc(-c2cc3ccc(C(=N)N)cc3[nH]2)cc1 | 40.5 | 38.8 | 21.5 | 6.9 | 6
10 | N=C(N)c1ccc2c(ccn2CCCCCn2ccc3cc(C(=N)N)ccc32)c1 | 12.9 | 15.3 | 10.2 | 5 | 2.6
11 | CC[n+]1c(-c2ccccc2)c2cc(N)ccc2c2ccc(N)cc21 | 16.8 | 9.9 | 12.4 | 5.3 | 3
12 | N=C(N)c1ccc2[nH]c(CCCCCc3nc4cc(C(=N)N)ccc4[nH]3)nc2c1 | 18.3 | 24.7 | 10.1 | 3.3 | 5
13 | N=C(N)c1ccc2[nH]c(CCc3nc4cc(C(=N)N)ccc4[nH]3)nc2c1 | 37.2 | 42.4 | 18.5 | 4 | 4
14 | CN1CCN(c2ccc3[nH]c(-c4ccc5[nH]c(-c6ccc(O)cc6)nc5c4)nc3c2)CC1 | 24.1 | 32.4 | 14.1 | 2.5 | 10
15 | O=[N+]([O-])c1ccc2[nH]c(CCc3nc4cc([N+](=O)[O-])ccc4[nH]3)nc2c1 | 0.2 | 0.5 | 1.5 | 2.6 | –
16 | c1cc2[nH]c(CCc3nc4cc(C5=NCCCN5)ccc4[nH]3)nc2cc1C1=NCCCN1 | 39.5 | 45.1 | 19.7 | 2.7 | 15
17 | N=C(N)c1ccc2[nH]c(/C=C/c3nc4cc(C(=N)N)ccc4[nH]3)nc2c1 | 42.4 | 46.1 | 21.8 | 5.8 | 7
18 | N=C(N)c1ccc2c(ccn2Cc2cccc(Cn3ccc4cc(C(=N)N)ccc43)c2)c1 | 9.2 | 8.1 | 8.1 | 4 | 2.3
19 | CC(C)NC(=N)c1ccc2[nH]c(CCc3nc4cc(C(=N)NC(C)C)ccc4[nH]3)nc2c1 | 32.9 | 37.3 | 19.2 | 3.3 | 10
20 | N=C(N)c1ccc2c(ccn2CCCCn2ccc3cc(C(=N)N)ccc32)c1 | 16.3 | 18.2 | 12.1 | 7.3 | 2.2

Row | Compound | Tm [1] [°C] | Tm [2] [°C] | Tm [3] [°C] | Tm [4] [°C] | Ratio [5]
21 | OC/C=N\c1ccc2[nH]c(CCc3nc4cc(/N=C/CO)ccc4[nH]3)nc2c1 | 1.4 | 4.5 | 2 | 0.7 | 3
22 | N=C(N)c1ccc2[nH]c(Cc3nc4ccccc4[nH]3)nc2c1 | 1 | 1.3 | 1.4 | 0.2 | –
23 | CNc1ccc2[nH]c(CCc3nc4cc(NC)ccc4[nH]3)nc2c1 | 14.1 | 34.2 | 12.8 | 3.9 | 4
24 | N=C(N)c1ccc2[nH]c(CCCCCCc3nc4cc(C(=N)N)ccc4[nH]3)nc2c1 | 28 | 34 | 13.5 | 3.5 | 8
25 | N=C(N)c1ccc2nc(Cc3nc4ccc(C(=N)N)cc4[nH]3)[nH]c2c1 | 11.5 | 9.2 | 7.6 | 3.5 | 3
26 | CC(C)NC(=N)c1ccc2[nH]c(/C=C/c3nc4cc(C(=N)NC(C)C)ccc4[nH]3)nc2c1 | 22.5 | 31.6 | 22.8 | 5.5 | 5
27 | N=C(N)c1ccc2[nH]c(CCCCCCCCc3nc4cc(C(=N)N)ccc4[nH]3)nc2c1 | 21.2 | 22.8 | 10.2 | 3.2 | 7
28 | N=C(N)c1ccc2[nH]c(-c3cccc(-c4nc5cc(C(=N)N)ccc5[nH]4)c3)nc2c1 | 23.9 | 34.6 | 12.8 | 5.6 | 4
29 | N=C(N)c1ccc(OCCCCCOc2ccc(C(=N)N)cc2)cc1 | 20.2 | 22.9 | 10.7 | 3.2 | 6
30 | Cc1cc(-c2nc3cc(C(=N)N)ccc3[nH]2)c(C)cc1-c1nc2cc(C(=N)N)ccc2[nH]1 | 26.5 | 29 | 15.6 | 3.7 | 7
31 | C1=NCCCN1Cc1ccc2[nH]c(CCc3nc4cc(CN5C=NCCC5)ccc4[nH]3)nc2c1 | 28.9 | 30.7 | 13.3 | 1.6 | 18
32 | N=C(N)c1ccc2[nH]c(CCCc3nc4cc(C(=N)N)ccc4[nH]3)nc2c1 | 20.1 | 30.6 | 10.6 | 3.3 | 6
33 | Cn1cc(NC(=O)c2cc(NC(=O)CNC(=N)N)cn2C)cc1C(=O)NCCC(=N)N | 35.1 | 46.6 | 19 | 1.1 | 32
34 | N=C(N)c1ccc2c(ccn2Cc2ccc(Cn3ccc4cc(C(=N)N)ccc43)cc2)c1 | 11.9 | 10.8 | 9.3 | 5.4 | 2.2
35 | N=C(N)c1ccc2c(ccn2CCCCCCn2ccc3cc(C(=N)N)ccc32)c1 | 13.4 | 17.7 | 10.5 | 5.9 | 2.3
36 | N=C(N)c1ccc2[nH]c(-c3ccc(-c4nc5cc(C(=N)N)ccc5[nH]4)cc3)nc2c1 | 21.7 | 27.5 | 13.3 | 3.1 | 7
37 | N=C(N)c1ccc2[nH]c(CCCCc3nc4cc(C(=N)N)ccc4[nH]3)nc2c1 | 31.3 | 33.5 | 15.9 | 3.3 | 9
38 | c1cc2[nH]c(Cc3nc4cc(C5=NCCN5)ccc4[nH]3)nc2cc1C1=NCCN1 | 10.7 | 13.5 | 6.9 | 4.1 | 3
39 | c1cc2[nH]c(CCCCc3nc4cc(C5=NCCN5)ccc4[nH]3)nc2cc1C1=NCCN1 | 28.9 | 34.5 | 15.3 | 4.6 | 6
40 | N=C(N)c1ccc2c(ccn2CCCn2ccc3cc(C(=N)N)ccc32)c1 | 20.3 | 19.2 | 13.7 | 6.5 | 3.1
